From the NIST ThermoML archive (doi:10.1016/j.tca.2010.01.005)

Test: excess molar enthalpy (molar enthalpy of mixing); xn = mol fraction of the nth substance listed
Conditions: 303.15 K, 101 kPa, Liquid, Calvet calorimetry

BrCBr [dibromomethane] + CC#N
Conditions	excess molar enthalpy [kcal/mol]
x1 = 0.1028	0.0213
x1 = 0.2166	0.0349
x1 = 0.3067	0.0413
x1 = 0.4007	0.0428
x1 = 0.5547	0.0359
x1 = 0.6564	0.0256
x1 = 0.7022	0.0213
x1 = 0.8786	0.0055

c1ccoc1 [furan] + BrCBr
Conditions	excess molar enthalpy [kcal/mol]
x2 = 0.1499	0.0447
x2 = 0.2828	0.0554
x2 = 0.3405	0.0552
x2 = 0.4247	0.0507
x2 = 0.6268	0.0397
x2 = 0.7204	0.0344
x2 = 0.8358	0.0261
x2 = 0.9381	0.0131

BrCBr [dibromomethane] + CC(=O)c1ccccc1
Conditions	excess molar enthalpy [kcal/mol]
x1 = 0.1763	-0.0244
x1 = 0.3362	-0.0354
x1 = 0.4052	-0.0387
x1 = 0.4229	-0.0382
x1 = 0.5115	-0.0382
x1 = 0.6248	-0.0361
x1 = 0.7449	-0.0272
x1 = 0.852	-0.0182
